Literature values as cited in PubChem BioAssay AID1259410 (Chemical Carcinogenesis Research Information System (CCRIS), 2018).

Tested on: rodent tumor promotion studies, tumor incidence
Assay: CCRIS tumor promotion studies

For `O=C1O[C@H]([C@@H](O)CO)C(O)=C1O`, the outcome (Carcinogen: 1,2-DIMETHYLHYDRAZINE, 540-73-8, Doses [Carcinogen]: 20 MG/KG 1/WK FOR 4 WK, Doses [Promoter]: 0, 5% IN DIET FOR 36 WK (STUDY DURATION: 40 WK), Route [Carcinogen]: SUBCUTANEOUS, Route [Promoter]: ORAL, Species: RAT, Strain/Sex: F344/MALE) is listed as “colon: tumor”, the outcome (Carcinogen: BUTYLATED HYDROXYANISOLE, 25013-16-5, Doses [Carcinogen]: 2% IN DIET FOR 1 YR, Doses [Promoter]: 0, 2% IN DIET CONCOMITANTLY WITH CARCINOGEN FOR 1 YR (STUDY DURATION: 1 YR), Route [Carcinogen]: ORAL, Route [Promoter]: ORAL, Species: RAT, Strain/Sex: F344/MALE) is listed as “forestomach: squamous cell carcinoma” and the outcome (Carcinogen: METHYLNITROSOUREA, 684-93-5, Doses [Carcinogen]: 20 MG/KG 2/WK FOR 4 WK, Doses [Promoter]: 0, 5% IN DIET BEGINNING POST CARCINOGEN TREATMENT AND CONTINUING FOR 32 WK (STUDY DURATION: 36 WK), Route [Carcinogen]: INTRAPERITONEAL, Route [Promoter]: ORAL, Species: RAT, Strain/Sex: F344/MALE) is listed as “urinary bladder: papilloma; forestomach: carcinoma”. For the same molecule, the outcome (Carcinogen: N-BUTYL-N-4(HYDROXYBUTYL)NITROSAMINE, 3817-11-6, Doses [Carcinogen]: 0.05% IN DRINKING WATER FOR 2 WK, Doses [Promoter]: 0, 5% IN DIET STARTING POST CARCINOGEN AND CONTINUING FOR 22 WK, LEFT URETER LIGATED 8 D POST CARCINOGEN (STUDY DURATION, Route [Carcinogen]: ORAL, Route [Promoter]: ORAL, Species: RAT, Strain/Sex: F344/MALE) was “bladder: papilloma”, the outcome (Carcinogen: N-BUTYL-N-(4-HYDROXYBUTYL)-NITROSAMINE, 3817-11-6, Doses [Carcinogen]: 0.05% IN DRINKING WATER FOR 4 WK, Doses [Promoter]: 0, 5% IN DIET FOR 32 WK BEGINNING POST CARCINOGEN TREATMENT (STUDY DURATION: 36 WK), Route [Carcinogen]: ORAL, Route [Promoter]: ORAL, Species: RAT, Strain/Sex: F344/MALE) was “urinary bladder: papilloma, carcinoma” and the outcome (Carcinogen: N-BUTYL-N-(4-HYDROXYBUTYL)-NITROSAMINE, 3817-11-6, Doses [Carcinogen]: 0.05% IN DRINKING WATER FOR 4 WK, Doses [Promoter]: 0, 5% IN DIET FOR 32 WK BEGINNING POST CARCINOGEN TREATMENT (STUDY DURATION: 36 WK), Route [Carcinogen]: ORAL, Route [Promoter]: ORAL, Species: RAT, Strain/Sex: LEW/MALE) was “urinary bladder: papilloma, carcinoma”. For the same molecule, the outcome (Carcinogen: N-BUTYL-N-(4-HYDROXYBUTYL)NITROSAMINE [3817-11-6], Doses [Carcinogen]: 0.05% IN DRINKING WATER FOR 4 WK (STUDY DURATION: 40 WK), Doses [Promoter]: 2.5% IN DIET FOR 18 WK BEGINNING IMMEDIATELY POST LAST CARCINOGEN DOSE (STUDY DURATION: 40 WK), Route [Carcinogen]: ORAL, Route [Promoter]: ORAL, Species: RAT, Strain/Sex: F344/MALE) was “urinary bladder: tumor”, the outcome (Carcinogen: N-BUTYL-N-(4-HYDROXYBUTYL)NITROSAMINE, 3817-11-6, Doses [Carcinogen]: 0.05% IN DRINKING WATER FOR 2 WK, Doses [Promoter]: 0, 5% IN DIET FOR 32 WK BEGINNING POST CARCINOGEN TREATMENT (STUDY DURATION: 34 WK), Route [Carcinogen]: ORAL, Route [Promoter]: ORAL, Species: RAT, Strain/Sex: F344/MALE) was “urinary bladder: papilloma, carcinoma” and the outcome (Carcinogen: N-BUTYL-N-(4-HYDROXYBUTYL)NITROSAMINE, 3817-11-6, Doses [Carcinogen]: 0.05% IN DRINKING WATER FOR 4 WK, Doses [Promoter]: 0, 5% IN BASAL DIET CONTAINING 1.5% SODIUM BICARBONATE FOR 32 WK (STUDY DURATION: 36 WK), Route [Carcinogen]: ORAL, Route [Promoter]: ORAL, Species: RAT, Strain/Sex: F344/MALE) was “urinary bladder: carcinoma”. The outcome (Carcinogen: N-BUTYL-N-(4-HYDROXYBUTYL)NITROSAMINE, 3817-11-6, Doses [Carcinogen]: 0.05% IN DRINKING WATER FOR 4 WK, Doses [Promoter]: 0, 5% IN DIET FOR 32 WK (STUDY DURATION: 36 WK), Route [Carcinogen]: ORAL, Route [Promoter]: ORAL, Species: RAT, Strain/Sex: F344/MALE) was “urinary bladder: papilloma, carcinoma”, the outcome (Carcinogen: N-BUTYL-N-(4-HYDROXYBUTYL)NITROSAMINE, 3817-11-6, Doses [Carcinogen]: 0.05% IN DRINKING WATER FOR 4 WK, Doses [Promoter]: 0, 5% IN DIET FOR 32 WK BEGINNING POST CARCINOGEN TREATMENT (STUDY DURATION: 36 WK), Route [Carcinogen]: ORAL, Route [Promoter]: ORAL, Species: RATS, Strain/Sex: F344/SHI/MALE) was “bladder: papilloma, carcinoma” and the outcome (Carcinogen: N-BUTYL-N-(4-HYDROXYBUTYL)NITROSAMINE, 3817-11-6, Doses [Carcinogen]: 0.05% IN DRINKING WATER FOR 4 WK, Doses [Promoter]: 0, 5% IN DIET FOR 32 WK POST CARCINOGEN DOSE (STUDY DURATION: 36 WK), Route [Carcinogen]: ORAL, Route [Promoter]: ORAL, Species: RAT, Strain/Sex: F344/MALE) was “bladder: carcinoma or papilloma”. For the same molecule, the outcome (Carcinogen: N-METHYL-N-NITROSOUREA, 684-93-5, Doses [Carcinogen]: 20 MG/KG 2/WK FOR 4 WK, Doses [Promoter]: 0, 5% IN DIET FOR 32 WK (STUDY DURATION: 32 WK), Route [Carcinogen]: INTRAPERITONEAL, Route [Promoter]: ORAL, Species: RAT, Strain/Sex: F344/MALE) was “forestomach: papilloma, carcinoma; urinary bladder: papilloma, carcinoma”, the outcome (Carcinogen: N-[4-(5-NITRO-2-FURYL)-2-THIAZOLYL]FORMAMIDE, 24554-26-5, Doses [Carcinogen]: 0.2% IN DIET FOR 6 WK, Doses [Promoter]: 0, 5% IN PROLAB DIET FOR 72 WK BEGINNING POST CARCINOGEN TREATMENT (STUDY DURATION: 78 WK), Route [Carcinogen]: ORAL, Route [Promoter]: ORAL, Species: RAT, Strain/Sex: F344/MALE) was “urinary bladder: carcinoma, carcinoma or papilloma” and the outcome (Carcinogen: N-bis(2-hydroxypropyl)nitrosamine (DHPN) (53609-64-6), Doses [Carcinogen]: 0.1% (w/v) in drinking water for 3 wk, then surgery for acid reflux esophagitis, study duration 34 wk, Doses [Promoter]: 0 (basal diet), 1% ascorbic acid, 1% ascorbic acid with 0.2% sodium nitrite, study duration 32 wk after first promoter d, Doses [Promoter]: 0 (basal diet), 1% ascorbic acid, 1% ascorbic acid with 0.2% sodium nitrite, study duration 32 wk after first promoter d, Route [Carcinogen]: Oral, Route [Promoter]: Oral, Species: Rat, Strain/Sex: F344/Male (24/group)) was “esophagus (p1-p4): papilloma; significant only for combined treatment in p4 segm”. For the same molecule, the outcome (Carcinogen: N-methyl-N'-nitro-N-nitrosoguanidine (70-25-7), Doses [Carcinogen]: 0.01% in drinking water for 10 wk for initiation of glandular stomach tumors, 100 mg/kg intragastrically after 16 hr st, Doses [Promoter]: 0.1% or 1.0% in the diet from wk 11 to end of study in combination with 0.05%, 0.1%, or 0.2% sodium nitrite in drinki, Route [Carcinogen]: Oral and Intragastric, Route [Promoter]: Oral, Species: Rat, Strain/Sex: F344/Male (15/15)/(14/15)(15/15)(15/15)(15/15)(15/15)(14/15)) was “forestomach: squamous cell carcinoma, papilloma increased in incidence and/or se”.

For `CCCCCCCCCCCC(=O)OCCOC[C@@H](OCCO)[C@H]1OC[C@@H](OCCO)[C@H]1OCCO`, the outcome (Carcinogen: 7,12-DIMETHYLBENZ(A)ANTHRACENE, Doses [Carcinogen]: TOP, Route [Carcinogen]: DERMAL, Route [Promoter]: DERMAL, Species: MOUSE, Strain/Sex: MALE) is listed as “integumentary system (skin)”.

For `CC(C)(Oc1ccc(C2CCCc3ccccc32)cc1)C(=O)O` (stereo unspecified), the outcome (Carcinogen: DIETHYLNITROSAMINE, 55-18-5, 2-ACETYLAMINOFLUORENE, 6292-55-3, CARBON TETRACHLORIDE, 56-23-5, Carcinogen: DIETHYLNITROSAMINE, 55-18-5, 2-ACETYLAMINOFLUORENE, 6292-55-3, CARBON TETRACHLORIDE, 56-23-5, Doses [Carcinogen]: 200 MG/KG ONCE FOLLOWED 2 WK LATER BY 0.03% 2-ACETYLAMINOFLUORENE IN DIET FOR 2 WK PLUS 2 ML/KG CARBON TETRACHLORIDE IN, Doses [Promoter]: 0.1% IN DIET STARTING 1 WK POST 2-ACETYLAMINOFLUORENE AND CONTINUED FOR 6 MO (STUDY DURATION: 7 MO), Route [Carcinogen]: INTRAPERITONEAL, ORAL, INTRAGASTRIC, Route [Carcinogen]: INTRAPERITONEAL, ORAL, INTRAGASTRIC, Route [Promoter]: ORAL, Species: RAT, Strain/Sex: WISTAR/MALE) is given as “liver: hepatocellular carcinoma”.

In the case of `CCC(CC)C(=O)NC(N)=O`, the outcome (Carcinogen: N-NITROSODIETHYLAMINE, 55-18-5, Doses [Carcinogen]: 75 MG IN STERILE SALINE ONCE, Doses [Promoter]: 0, 341 PPM IN DIET BEGINNING 2 WK POST CARCINOGEN DOSE AND CONTINUING FOR DURATION OF STUDY (STUDY DURATION: 78 WK), Route [Carcinogen]: INTRAPERITONEAL, Route [Promoter]: ORAL, Species: RAT, Strain/Sex: F344/MALE) is listed as “liver: hepatocellular adenoma; kidney: renal tubular cell adenoma or carcinoma”.

For `COS(C)(=O)=O`, the outcome (Carcinogen: N-METHYL-N-NITROSOUREA, 684-93-5, Doses [Carcinogen]: 0.3 MG IN CITRIC ACID PHOSPHATE BUFFER ONCE FOR 30 MIN, Doses [Promoter]: 0, 2.5 MG IN BUFFER 1/2 WK FOR 12 WK BEGINNING 14 D POST CARCINOGEN (STUDY DURATION: 2 YR), Route [Carcinogen]: INTRAVESICULAR, Route [Promoter]: INTRAVESICULAR, Species: RAT, Strain/Sex: F344/FEMALE) is listed as “bladder: papillary transitional cell carcinoma”.

For `CCCCCC1(CCCCCC(=O)OC2C(C)C3(O)C(C=C(CO)CC4(O)C(=O)C(C)=CC43)C3C(C)(C)C23OC(C)=O)OCC(C)(C)N1[O]` (stereo unspecified), the outcome (Carcinogen: 7,12-DIMETHYLBENZ[A]ANTHRACENE, 57-97-6, Doses [Carcinogen]: 100 NMOL ONCE, Doses [Promoter]: 0, 20 NMOL 2/WK FOR 24 WK BEGINNING 1 WK POST CARCINOGEN DOSE (STUDY DURATION: 25 WK), Route [Carcinogen]: DERMAL, Route [Promoter]: DERMAL, Species: MOUSE, Strain/Sex: NMRI/FEMALE) is listed as “skin: tumor”.
